Assays:
Assay in all cases: competitive isoTOP-ABPP, MDA-MB-231 soluble proteome
PEC1 = molecular target: T1, PEC1 (Homo sapiens, UniProt O75521); format: binding; settings: 100 μM LDE, 60 min; peptide WLSDEC*TNAVVNFLSR
T1 construct: directly in native proteomes; endogenous in cells; host or cells: MDA-MB-231
T1 sequence (O75521 39-394): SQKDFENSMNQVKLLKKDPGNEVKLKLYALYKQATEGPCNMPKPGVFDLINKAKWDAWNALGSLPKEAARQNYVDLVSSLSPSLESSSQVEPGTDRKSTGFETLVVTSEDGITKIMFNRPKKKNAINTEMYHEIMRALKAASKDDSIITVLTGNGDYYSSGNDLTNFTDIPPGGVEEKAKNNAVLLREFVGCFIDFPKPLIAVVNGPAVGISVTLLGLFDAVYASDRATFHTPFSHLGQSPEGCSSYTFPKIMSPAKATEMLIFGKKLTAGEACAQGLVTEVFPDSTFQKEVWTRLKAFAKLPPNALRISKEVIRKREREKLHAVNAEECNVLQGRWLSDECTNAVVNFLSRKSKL
Description: (§1) Here, we envisioned that isoTOP-ABPP could be advanced to discover and quantify reactions between cysteines in proteomes and any electrophilic compound. In this advanced, ‘competitive’ version of isoTOP-ABPP (FIG. 1a), a proteome is treated with an electrophile (experimental sample) or DMSO (control sample). Both proteomic samples are then labeled with the IA probe and conjugated by CuAAC to light and heavy azide-biotin tags, respectively. The light and heavy samples are then mixed and subjected to our described isoTOP-ABPP protocol for enrichment, identification, and quantification of IA-labeled cysteines^30. Electrophile-modified cysteines are quantified by measuring the MS1 chromatographic peak ratios (R values) for heavy (DMSO-treated) over light (electrophile-treated) samples, with higher R values reflecting greater sensitivity to the electrophile. In this format, competitive isoTOP-ABPP can assay electrophiles against 1000+ cysteines in parallel directly in native proteomes without requiring any chemical modification to the electrophiles themselves.
(§2) Competitive isoTOP-ABPP experiments were performed in quadruplicate using the soluble proteome of the human breast cancer cell line MDA-MB-231 cell line. Proteomes were treated with 100 μM HNE, 15d-PGJ2, or 2-HD, for 60 minutes, followed by the IA-probe (100 μM, 60 min) A total of ˜1400 cysteine reactivities were quantified across the aggregate data set, with at least 900 cysteine reactivities quantified for each LDE (FIG. 2a) more than 750 of which were quantified for all the three electrophiles.
(§3) HNE was purchased from EMD biosciences, 15d-PGJ2 was purchased from Cayman Chemicals and 2-HD was purchased from Santa Cruz Biotechnology. Proteome samples were diluted to a 4 mg protein/mL solution in PBS. For each profiling experiment, one aliquot of the proteome sample (0.5 mL) was treated with 100 μM of LDE using 5 μL of a 10 mM stock and the other aliquot was treated with 5 μL of either ethanol (for HNE and 15d-PGJ2) or DMSO (for 2-HD) as control. For the concentration-dependent profiling experiments using HNE, aliquots of the proteomes (0.5 mL each) were treated with 5, 10, 50, 100 and 500 μM of HNE using 5 μL of 0.5, 1.0, 5, 10 and 50 mM of stock solution, respectively. After 60 minutes of treatment at room temperature, both the LDE-treated and control aliquots were passed through a NAP-5 Sephadex column (GE healthcare) to remove any unreacted LDE. The volume of each aliquot was increased to 1 mL with the concentration at 2 mg/mL after this step.
(§4) Each of the control and LDE-treated proteome samples (˜2 mg protein/mL in 1 mL volume) was treated with 100 μM of IA-probe using 10 μL of a 10 mM stock in DMSO. The labeling reactions were incubated at room temperature for 1 hour. Click chemistry (acetylene-azide cycloaddition) was performed by the addition of 100 μM of either the Heavy-TEV-Tag (for the control sample) or Light-TEV-Tag (for the LDE-treated sample) (20 μL of a 5 mM stock), 1 mM TCEP (fresh 50× stock in water), 100 μM ligand (17× stock in DMSO:t-Butanol 1:4) and 1 mM CuSO4 (50× stock in water). Samples were allowed to react at room temperature for 1 hour. After the click chemistry step, the light and heavy-labeled samples were mixed together and centrifuged (5900×g, 4 min, 4° C.) to pellet the precipitated proteins.
(§5) The pellets were washed twice in cold MeOH, after which the pellet was solubilized in PBS containing 1.2% SDS via sonication and heating (5 min, 80° C.). Samples were subjected to streptavidin enrichment of probe-labeled proteins, sequential on-bead trypsin and TEV digestion, and liquid chromatography-mass spectrometry (LC-MS) analysis according to the published isoTOP-ABPP protocol^30.
(§6) IA-probe labeled peptides were identified by SEQUEST2 and DTASelect3, and the quantification of heavy/light ratios (isoTOP-ABPP ratios, R) was performed by an in-house software (CIMAGE) as previously described. […]

RPL24 = molecular target: T2, RPL24 (Homo sapiens, UniProt P83731); format: binding; settings: 100 μM LDE, 60 min; peptide C*ESAFLSK
T2 construct: directly in native proteomes; endogenous in cells; host or cells: MDA-MB-231
Description: as §1, §2, §3, §4, §5, §6

WDR45L = molecular target: T3, WDR45L (Homo sapiens, UniProt Q5MNZ6); format: binding; settings: 100 μM LDE, 60 min; peptide C*NYLALVGGGK
T3 construct: directly in native proteomes; endogenous in cells; host or cells: MDA-MB-231
T3 sequence (Q5MNZ6 whole entry): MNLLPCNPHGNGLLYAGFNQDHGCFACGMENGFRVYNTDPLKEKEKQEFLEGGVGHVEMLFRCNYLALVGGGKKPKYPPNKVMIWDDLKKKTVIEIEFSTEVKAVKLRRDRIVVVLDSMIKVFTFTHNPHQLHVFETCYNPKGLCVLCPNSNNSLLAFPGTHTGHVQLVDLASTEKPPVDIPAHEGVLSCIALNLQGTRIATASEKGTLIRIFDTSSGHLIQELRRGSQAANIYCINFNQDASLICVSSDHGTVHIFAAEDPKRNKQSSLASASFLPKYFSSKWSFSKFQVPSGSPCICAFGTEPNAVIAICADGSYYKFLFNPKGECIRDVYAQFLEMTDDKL
Description: as §1, §2, §3, §4, §5, §6

RPL23 = molecular target: T4, RPL23 (Homo sapiens, UniProt P62829); format: binding; settings: 100 μM LDE, 60 min; peptide ISLGLPVGAVINC*ADNTGAK
T4 construct: directly in native proteomes; endogenous in cells; host or cells: MDA-MB-231
Description: as §1, §2, §3, §4, §5, §6

AHSG = format: binding, human; settings: 100 μM LDE, 60 min; peptide C*DSSPDSAEDVR
Description: as §1, §2
HNE was purchased from EMD biosciences, 15d-PGJ2 was purchased from Cayman Chemicals and 2-HD was purchased from Santa Cruz Biotechnology. Proteome samples were diluted to a 4 mg protein/mL solution in PBS. […]
as §6

## CCCCCCCCCCCCC/C=C/C=O [2-HD, 2-trans-hexadecenal]
PEC1
  R value (isoTOP-ABPP ratio heavy/light) for IA-labeled cysteine of PEC1: 1.06
RPL24
  R value (isoTOP-ABPP ratio heavy/light) for IA-labeled cysteine of RPL24: 1.25
WDR45L
  R value (isoTOP-ABPP ratio heavy/light) for IA-labeled cysteine of WDR45L: 1.06
RPL23
  R value (isoTOP-ABPP ratio heavy/light) for IA-labeled cysteine of RPL23: 1.87
AHSG
  R value (isoTOP-ABPP ratio heavy/light) for IA-labeled cysteine of AHSG: 1.12

## CCCCCC(O)/C=C/C=O (stereo not drawn) [4-HNE, 4-Hydroxynonenal]
PEC1
  R value (isoTOP-ABPP ratio heavy/light) for IA-labeled cysteine of PEC1: 1.86
RPL24
  R value (isoTOP-ABPP ratio heavy/light) for IA-labeled cysteine of RPL24: 1.74
WDR45L
  R value (isoTOP-ABPP ratio heavy/light) for IA-labeled cysteine of WDR45L: 3.34
RPL23
  R value (isoTOP-ABPP ratio heavy/light) for IA-labeled cysteine of RPL23: 1.73
AHSG
  R value (isoTOP-ABPP ratio heavy/light) for IA-labeled cysteine of AHSG: 1.35

## CCCCC/C=C/C=C1/C(=O)C=C[C@@H]1C/C=C\CCCC(=O)O [PGJ2, 15-deoxy-Δ12,14-prostaglandin J2]
PEC1
  R value (isoTOP-ABPP ratio heavy/light) for IA-labeled cysteine of PEC1: 8.23
RPL24
  R value (isoTOP-ABPP ratio heavy/light) for IA-labeled cysteine of RPL24: 6.78
WDR45L
  R value (isoTOP-ABPP ratio heavy/light) for IA-labeled cysteine of WDR45L: 6.45
RPL23
  R value (isoTOP-ABPP ratio heavy/light) for IA-labeled cysteine of RPL23: 5.06
AHSG
  R value (isoTOP-ABPP ratio heavy/light) for IA-labeled cysteine of AHSG: 5.73

— patent US10782295B2, “Cysteine-reactive ligand discovery in proteomes” (THE SCRIPPS RESEARCH INSTITUTE, priority 2013, dated 2020)
